From patent US5591758A, “Organic nitrates, processes for their preparation and their use in the treatment of cardiovascular diseases” (Laboratoires Hoechst, SA, priority 1991, dated 1997)
Counter-ions that a name gives are not always drawn.

Tests used:
thoracic aorta = assay: Vasorelaxant effect on isolated vessels (rat thoracic aorta rings without endothelium, precontracted with noradrenalin); design: species or system Wistar rats
Method in brief: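 Endothelium-denuded thoracic aorta rings from Wistar rats, held in Krebs-Ringer buffer (pH 7.4, 37 °C, 95% O2/5% CO2) under isometric tension and precontracted with 10^-7 M noradrenalin, received cumulative compound (10^-8 to 10^-4 M). Maximum relaxation given as percent; IC50 calculated when relaxation exceeded 50%.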

anesthetised pigs = assay: Haemodynamic effects on anesthetised pigs; assay type: in vivo, pigs ("German land" race)
Description: Haemodynamic effects of the compounds according to the invention on anesthetised pigs or dogs
Pigs are of "German land" race (20-26 kg) and are used after fasting overnight.
In the case of pigs, sedation, analgesia and anesthesia are induced by ketamine HCl (20 mg/kg i.m.), methonidate HCl (10 mg/kg i.m.), xylacine HCl (3 mg/kg i.m.) and sodium pentobarbitol (25-30 mg/kg as bolus i.v. or 0.16 mg/kg/min as i.v. perfusion).
The pigs or dogs are placed under artificial respiration in ambient air. Analysis of the blood gases (pO2, pCO2) is carried out at regular intervals and oxygen can be supplied via the respirator, if necessary.
The haemodynamic parameters recorded include the left ventricular pressure (LVP; Millar PC350 Tip catheter inserted via the carotid artery), systemic blood pressure (BPs, BPd; full catheter in a femoral artery), the end pressure of the left ventricular diastole (LVEDP), the ventricular contractility (LVPdp/dtmax) and the heart rate (HR).
The haemodynamic variables are recorded continuously for 1 to 3 hours, as a function of the period of action of the compound.
The effects of the compounds studied are shown as the absolute difference with respect to the base value (bv) measured before administration of the compounds and are shown in Table VII (a,b,c).
An antianginal activity is estimated by a fall in the BPs and the LVEDP (fall in venous return).

IC50 (thoracic aorta; rat aorta, 10^-7 M noradrenalin contraction)	SMILES	Emax (thoracic aorta; Rattus norvegicus, maximum inhibition of noradrenalin effect, 10^-8 to 10^-4 M substance, read-out: Maximum Relaxation)	BPs (min), period of action (anesthetised pigs; pigs, 3,0 mg/kg i.d.)	BPs, difference to base value (anesthetised pigs; pigs, 3,0 mg/kg i.d.)	LVRDP (min), period of action (anesthetised pigs; pigs, 3,0 mg/kg i.d.)	LVRDP, difference to base value (anesthetised pigs; pigs, 3,0 mg/kg i.d.)	BPs, difference to base value (anesthetised pigs; pigs, 1,0 mg/kg i.d.)	LVRDP, difference to base value (anesthetised pigs; pigs, 1,0 mg/kg i.d.)	BPs (min), period of action (anesthetised pigs; pigs, 10,0 mg/kg i.d.)	BPs, difference to base value (anesthetised pigs; pigs, 10,0 mg/kg i.d.)	LVRDP (min), period of action (anesthetised pigs; pigs, 10,0 mg/kg i.d.)	LVRDP, difference to base value (anesthetised pigs; pigs, 10,0 mg/kg i.d.)
100 µM	O=C(CNC(=O)[C@@H]1CSCN1)N[C@H]1CO[C@H]2[C@@H]1OC[C@@H]2O[N+](=O)[O-] [Compound 46, 5-[[2-[[(4-L-Thiazolidinyl)carbonyl]amino]-1oxoethyl]amino]-5-deoxy-2-O-nitro-1,4:3,6-dianhydro-L-iditol monohydrochloride]	50%	> 120 min	-30 mmHg	> 120 min	-5,0 mmHg	–	–	–	–	–	–
–	O=[N+]([O-])O[C@@H]1CO[C@H]2[C@@H]1OC[C@@H]2O [IS-5-MN, isosorbide 5-mononitrate, reference compound]	–	60 min	-5 mmHg	60 min	-3 mmHg	0 mmHg	0 mmHg	> 120 min	-26 mmHg	> 120 min	-3,0 mmHg
